From patent US20040028675A1, “Compositions for the treatment of lupus” (Zarlink Semiconductor AB, priority 2001, published 2004)
Blank lines part the entries; values can stand above or below the compound they belong to.

Legend:
[1] = test system: patients with Lupus (Systemic Lupus Erythematosus); test: Treatment of patients with Lupus (SLE) with the inventive composition
Kv1.3 channel [2] = molecular target: T1, Kv1.3 channel (Homo sapiens, UniProt P22001); test: Screening tests of ion channel function; conditions: screening tests by experts in ion channel function
T1 sequence (P22001 whole entry): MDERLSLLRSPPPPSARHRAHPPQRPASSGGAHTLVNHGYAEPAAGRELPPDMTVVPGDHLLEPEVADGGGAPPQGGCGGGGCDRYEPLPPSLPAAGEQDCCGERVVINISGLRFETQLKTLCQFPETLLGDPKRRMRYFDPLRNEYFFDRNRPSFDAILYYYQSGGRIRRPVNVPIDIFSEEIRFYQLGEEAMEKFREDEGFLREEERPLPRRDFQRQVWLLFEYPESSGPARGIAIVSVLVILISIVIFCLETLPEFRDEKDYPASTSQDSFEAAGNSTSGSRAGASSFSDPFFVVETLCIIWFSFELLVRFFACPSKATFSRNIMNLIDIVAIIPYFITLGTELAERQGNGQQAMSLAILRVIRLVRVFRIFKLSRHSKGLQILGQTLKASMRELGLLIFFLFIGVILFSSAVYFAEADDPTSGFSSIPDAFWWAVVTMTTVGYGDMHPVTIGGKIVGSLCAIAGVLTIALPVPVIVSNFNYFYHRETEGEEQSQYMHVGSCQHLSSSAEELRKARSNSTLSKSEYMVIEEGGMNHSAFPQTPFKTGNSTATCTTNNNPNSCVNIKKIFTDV

[3] = test system: patients with Lupus (Systemic Lupus Erythematosus); conditions: osteoarthritis or Lupus caused joint inflammation; cited from earlier work
Kv1.3 channel [4] = molecular target: T1, Kv1.3 channel; conditions: independently demonstrated; cited from earlier work

- effectiveness in tests of ion channel function (Kv1.3 channel [2]): even more effective than Quercetin
Compound: O=c1cc(-c2ccc(O)c(O)c2)oc2cc(O)cc(O)c12 [Luteolin]
- effectiveness of the bioflavonoid in the inventive formula (in place of Quercetin) ([1]; limited tests): somewhat more effective than Quercetin

Compound: Bromelain
- ameliorating joint pain, Bromelain alone [3]: not effective

- effectiveness in tests of ion channel function (Kv1.3 channel [2]): very effective
Compound: O=c1c(O)c(-c2ccc(O)c(O)c2)oc2cc(O)cc(O)c12 [Quercetin]
- modulating the conduction by the Kv1.3 potassium channel (Kv1.3 channel [4]): very effective

Compound: O=c1c(O)c(-c2cc(O)c(O)c(O)c2)oc2cc(O)cc(O)c12 [Myricetin]
- effectiveness of the bioflavonoid in the inventive formula (in place of Quercetin) ([1]; human, in vivo): somewhat effective
